Measured values reported in the NIST ThermoML archive (doi:10.1021/je200721d).
Numbers after ± are expanded uncertainties.

Assay: xn = mol fraction of the nth substance listed
Conditions: Liquid, Vibrating tube method

CCCCCCCC [octane] + CCCCCC
Conditions | mass density [kg/m3]
323.08 K, 13000 kPa, x2 = 0.1654 | 685.79 ± 0.36
323.08 K, 14000 kPa, x2 = 0.1654 | 686.73 ± 0.36
323.08 K, 15000 kPa, x2 = 0.1654 | 687.65 ± 0.37
323.08 K, 16000 kPa, x2 = 0.1654 | 688.56 ± 0.38
323.08 K, 17000 kPa, x2 = 0.1654 | 689.44 ± 0.39
323.08 K, 18000 kPa, x2 = 0.1654 | 690.32 ± 0.4
323.08 K, 19000 kPa, x2 = 0.1654 | 691.15 ± 0.41
323.08 K, 20000 kPa, x2 = 0.1654 | 691.98 ± 0.42
323.08 K, 21000 kPa, x2 = 0.1654 | 692.79 ± 0.43
323.08 K, 22000 kPa, x2 = 0.1654 | 693.57 ± 0.43
323.08 K, 23000 kPa, x2 = 0.1654 | 694.36 ± 0.44
323.08 K, 24000 kPa, x2 = 0.1654 | 695.11 ± 0.45
323.08 K, 25000 kPa, x2 = 0.1654 | 695.85 ± 0.46
323.09 K, 1000 kPa, x2 = 0.9308 | 638.41 ± 0.28
323.09 K, 2000 kPa, x2 = 0.9308 | 639.57 ± 0.28
323.09 K, 3000 kPa, x2 = 0.9308 | 640.76 ± 0.29
323.09 K, 4000 kPa, x2 = 0.9308 | 641.92 ± 0.3
323.09 K, 5000 kPa, x2 = 0.9308 | 643.1 ± 0.31
323.09 K, 6000 kPa, x2 = 0.9308 | 644.29 ± 0.32
323.09 K, 7000 kPa, x2 = 0.9308 | 645.46 ± 0.33
323.09 K, 8000 kPa, x2 = 0.9308 | 646.63 ± 0.34
323.09 K, 9000 kPa, x2 = 0.9308 | 647.79 ± 0.35
323.09 K, 10000 kPa, x2 = 0.9308 | 648.93 ± 0.36
323.09 K, 11000 kPa, x2 = 0.9308 | 650.05 ± 0.37
323.09 K, 12000 kPa, x2 = 0.9308 | 651.17 ± 0.38
323.09 K, 13000 kPa, x2 = 0.9308 | 652.26 ± 0.39
323.09 K, 14000 kPa, x2 = 0.9308 | 653.35 ± 0.4
323.09 K, 15000 kPa, x2 = 0.9308 | 654.41 ± 0.41
323.09 K, 16000 kPa, x2 = 0.9308 | 655.45 ± 0.42
323.09 K, 17000 kPa, x2 = 0.9308 | 656.47 ± 0.43
323.09 K, 18000 kPa, x2 = 0.9308 | 657.47 ± 0.44
323.09 K, 19000 kPa, x2 = 0.9308 | 658.44 ± 0.45
323.09 K, 20000 kPa, x2 = 0.9308 | 659.39 ± 0.46
323.09 K, 21000 kPa, x2 = 0.9308 | 660.32 ± 0.47
323.09 K, 22000 kPa, x2 = 0.9308 | 661.2 ± 0.48
323.09 K, 23000 kPa, x2 = 0.9308 | 662.07 ± 0.49
323.09 K, 24000 kPa, x2 = 0.9308 | 662.91 ± 0.5
323.09 K, 25000 kPa, x2 = 0.9308 | 663.72 ± 0.51
323.1 K, 1000 kPa, x2 = 0.7995 | 646.3 ± 0.27
323.1 K, 2000 kPa, x2 = 0.7995 | 647.41 ± 0.28
323.1 K, 3000 kPa, x2 = 0.7995 | 648.55 ± 0.29
323.1 K, 4000 kPa, x2 = 0.7995 | 649.72 ± 0.3
323.1 K, 5000 kPa, x2 = 0.7995 | 650.83 ± 0.31
323.1 K, 6000 kPa, x2 = 0.7995 | 651.95 ± 0.32
323.1 K, 7000 kPa, x2 = 0.7995 | 653.08 ± 0.32
323.1 K, 8000 kPa, x2 = 0.7995 | 654.18 ± 0.33
323.1 K, 9000 kPa, x2 = 0.7995 | 655.3 ± 0.34
323.1 K, 10000 kPa, x2 = 0.7995 | 656.41 ± 0.35
323.1 K, 11000 kPa, x2 = 0.7995 | 657.51 ± 0.36
323.1 K, 12000 kPa, x2 = 0.7995 | 658.59 ± 0.37
323.1 K, 13000 kPa, x2 = 0.7995 | 659.66 ± 0.38
323.1 K, 14000 kPa, x2 = 0.7995 | 660.72 ± 0.39
323.1 K, 15000 kPa, x2 = 0.7995 | 661.75 ± 0.4
323.1 K, 16000 kPa, x2 = 0.7995 | 662.76 ± 0.41
323.1 K, 17000 kPa, x2 = 0.7995 | 663.74 ± 0.42
323.1 K, 18000 kPa, x2 = 0.7995 | 664.69 ± 0.43
323.1 K, 19000 kPa, x2 = 0.7995 | 665.64 ± 0.44
323.1 K, 20000 kPa, x2 = 0.7995 | 666.56 ± 0.45
323.1 K, 21000 kPa, x2 = 0.7995 | 667.44 ± 0.46
323.1 K, 22000 kPa, x2 = 0.7995 | 668.32 ± 0.47
323.1 K, 23000 kPa, x2 = 0.7995 | 669.16 ± 0.48
323.1 K, 24000 kPa, x2 = 0.7995 | 669.96 ± 0.49
323.1 K, 25000 kPa, x2 = 0.7995 | 670.76 ± 0.5
332.95 K, 1000 kPa, x2 = 0.5749 | 649.41 ± 0.27
332.95 K, 2000 kPa, x2 = 0.5749 | 650.55 ± 0.28
332.95 K, 3000 kPa, x2 = 0.5749 | 651.69 ± 0.29
332.95 K, 4000 kPa, x2 = 0.5749 | 652.87 ± 0.29
332.95 K, 5000 kPa, x2 = 0.5749 | 654.06 ± 0.3
332.95 K, 6000 kPa, x2 = 0.5749 | 655.21 ± 0.31
332.95 K, 7000 kPa, x2 = 0.5749 | 656.35 ± 0.32
332.95 K, 8000 kPa, x2 = 0.5749 | 657.49 ± 0.33
332.95 K, 9000 kPa, x2 = 0.5749 | 658.63 ± 0.34
332.95 K, 10000 kPa, x2 = 0.5749 | 659.75 ± 0.35
332.95 K, 11000 kPa, x2 = 0.5749 | 660.86 ± 0.36
332.95 K, 12000 kPa, x2 = 0.5749 | 661.96 ± 0.37
332.95 K, 13000 kPa, x2 = 0.5749 | 663.04 ± 0.38
332.95 K, 14000 kPa, x2 = 0.5749 | 664.1 ± 0.38
332.95 K, 15000 kPa, x2 = 0.5749 | 665.14 ± 0.39
332.95 K, 16000 kPa, x2 = 0.5749 | 666.16 ± 0.4
332.95 K, 17000 kPa, x2 = 0.5749 | 667.18 ± 0.41
332.95 K, 18000 kPa, x2 = 0.5749 | 668.14 ± 0.42
332.95 K, 19000 kPa, x2 = 0.5749 | 669.09 ± 0.43
332.95 K, 20000 kPa, x2 = 0.5749 | 670.02 ± 0.44
332.95 K, 21000 kPa, x2 = 0.5749 | 670.93 ± 0.45
332.95 K, 22000 kPa, x2 = 0.5749 | 671.82 ± 0.46
332.95 K, 23000 kPa, x2 = 0.5749 | 672.7 ± 0.47
332.95 K, 24000 kPa, x2 = 0.5749 | 673.55 ± 0.48
332.95 K, 25000 kPa, x2 = 0.5749 | 674.35 ± 0.49
333.01 K, 1000 kPa, x2 = 0.9308 | 629.03 ± 0.28
333.01 K, 2000 kPa, x2 = 0.9308 | 630.32 ± 0.29
333.01 K, 3000 kPa, x2 = 0.9308 | 631.62 ± 0.3
333.01 K, 4000 kPa, x2 = 0.9308 | 632.91 ± 0.31
333.01 K, 5000 kPa, x2 = 0.9308 | 634.2 ± 0.31
333.01 K, 6000 kPa, x2 = 0.9308 | 635.48 ± 0.32
